Laboratory results reported in patent publication US20100068208A1, “Degranulation inhibitor” (priority 2005, published 2010).
Like-named read-outs stand apart in the source and are kept apart here.

Columns and labels:
TGR12 = format: cell-based, human
Procedure: CHO/dhfr^− cells (hereinafter CHO) were incubated in α-MEM (Invitrogen) supplemented with 10% fetal calf serum. After a termination codon in the TGR12-encoding nucleotide sequence was removed, a nucleotide sequence ligated with the nucleotide sequence encoding GFP (Wako Pure Chemical) [hereinafter briefly referred to as TGR12-GFP (DNA having the nucleotide sequence represented by SEQ ID NO: 31)] was incorporated into vector plasmid pAKKO-111H (the same vector plasmid as pAKKO1.11H described in Biochim. Biophys. Acta, 1219, 251-259 (1994)) for animal cell expression, and the vector plasmid was stably expressed to establish TGR12-GFP-expressed CHO cell line (hereinafter CHO-TGR12). CHO-TGR12 was incubated in nucleic acid-free α-MEM medium (Invitrogen) containing 10% dialyzed fetal calf serum.
CHO-TGR12 was plated in a 96-well plate at a density of 30,000 cells/well. After incubation overnight, the medium was discarded and 100 μL/well of assay buffer [Hank's Balanced Salt Solution (Invitrogen), 20 mM HEPES (Dojin Chemical Laboratory) and 2.5 mM Probenecid (Sigma)] containing 4 μM Fluo3-AM (Dojin Chemical Laboratory) was added, which was then allowed to stand for an hour at 37° C. […] After the cells were washed with assay buffer, fluorescence reflecting changes in intracellular calcium levels was assayed on FLIPR (Molecular Device). Ten seconds after initiation of the assay, 50 μL of a sample was added at a rate of 50 μL/second. Fluorescence measurement was taken every 1 second during the first 60 seconds and then every 6 seconds during the next 120 seconds; the highest fluorescence intensity over a 3 minute period was taken as the maximum activity under the stimulation condition, representing the mean value of 3 wells. The EC50 values were determined using Graphpad PRISM 4 (Graphpad Software).

[1] = test system: human mast cell line LAD 2; experiment: TGR12 ligand-dependent degranulation of LAD 2 (β-hexosaminidase release); format: cell-based
Procedure: Human mast cell line LAD 2 was incubated in StemPro-34 medium (Invitrogen) supplemented with 100 ng/mL of stem cell factor (Immuno-Biological Laboratories Co., Ltd.). […] Subsequently, Tyrode's buffer containing 50 μL of TGR12 ligand (Peptide Institute, Inc.) in various concentrations was added and incubation was continued at 37° C. for further 20 minutes to induce degranulation. The degree of degranulation was determined by assaying the β-hexosaminidase activity in the degranulation assay supernatant as given below. The supernatant was dispensed into a 96-well plate and 0.1M citrate (pH 4.5)/1 mM 4-methyl umbelliferyl-2-acetamido-2-deoxy-beta-D-glucopyranoside (Wako Pure Chemical) in 5-fold of the supernatant was added thereto, followed by incubation at 37° C. for an hour. […] The activity was then assayed using Fusion-α (Perkin-Elmer). The β-hexosaminidase activity was also shown by the activity in the supernatant obtained by centrifugation after freezing and thawing LAD 2 four times, which was made total β-hexosaminidase activity in LAD 2, and the degree of degranulation was shown as the percentage of the β-hexosaminidase activity in the LAD 2 supernatant based on the total β-hexosaminidase activity.

RBL-2H3 = experiment: Intracellular calcium increasing activity in RBL2H3 (FLIPR); format: cell-based; parameters: unit not given here
Procedure: (§1) RBL-2H3 (hereinafter RBL2H3) was incubated in α-MEM (Invitrogen) supplemented with 10% fetal calf serum. Vector plasmid pcDNA3.1 for animal cell expression, in which the nucleotide sequence containing the initiation codon to the termination codon of human TGR12 (DNA having the nucleotide sequence represented by SEQ ID NO: 32) was incorporated, was stably expressed in RBL-2H3 to establish human TGR12-expressed RBL-2H3 cell line (hereinafter RBL2H3-TGR12). RBL2H3-TGR12 was incubated in α-MEM (Invitrogen) supplemented with 10% fetal calf serum and 200 μg/mL of Geneticin.
(§2) The intracellular calcium increasing activity was assayed as follows. RBL2H3 and RBL2H3-TGR12 were plated in a 96-well plate at a density of 40,000 cells/well and incubated overnight. The medium was then discarded and 100 μL/well of 4 μM Fluo3-AM (Dojin Kagaku)-containing assay buffer [Hank's Balanced Salt Solution (Invitrogen), 20 mM HEPES (Dojin Kagaku) and 2.5 mM Probenecid (Sigma)] was added. The mixture was allowed to stand for an hour at 37° C. Various TGR12 (Peptide Institute, Inc.) or calcium ionophore A23187 (Wako Pure Chemical) was diluted in 0.05% CHAPS-containing assay buffer. After the cells were washed with the assay buffer, fluorescence emitted with changes in intracellular calcium was measured using FLIPR (Molecular Device). A sample, 50 μL, was added at a rate of 50 μL/sec. 10 seconds after initiation of the assay. Fluorescence was measured every 1 second during the first 60 seconds and every 6 seconds during the next 120 seconds. The highest fluorescence intensity during 3 minutes was made the maximum activity under the stimulation conditions, which was taken as an average of 3 wells. The EC50 values were calculated using Graphpad PRISM 4 (Graphpad Software).

human TGR12 = molecular target: T1, human TGR12 (Homo sapiens, UniProt Q96LB1); experiment: Intracellular calcium increasing activity in RBL2H3-TGR12 (FLIPR); format: cell-based
T1 construct: expressed in transfected cells
T1 sequence (Q96LB1 1-330): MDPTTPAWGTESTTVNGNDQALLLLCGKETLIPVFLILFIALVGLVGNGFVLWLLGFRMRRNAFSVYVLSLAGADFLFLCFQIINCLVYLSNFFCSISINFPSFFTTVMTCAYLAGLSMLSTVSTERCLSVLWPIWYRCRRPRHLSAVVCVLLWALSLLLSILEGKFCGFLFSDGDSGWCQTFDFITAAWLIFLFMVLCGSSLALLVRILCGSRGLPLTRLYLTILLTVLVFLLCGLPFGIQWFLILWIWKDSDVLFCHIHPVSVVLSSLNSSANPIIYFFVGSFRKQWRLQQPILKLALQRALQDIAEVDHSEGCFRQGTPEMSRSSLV
Procedure: as §1, §2

[2] = CHO-TGR12, 0.3 nM, highest fluorescence intensity over 3 minutes

## CC[C@H](C)[C@H](NC(=O)[C@H](CO)NC(=O)[C@H](CC(N)=O)NC(=O)[C@H](CC(C)C)NC(=O)[C@H](Cc1ccc(O)cc1)NC(=O)[C@H](CCCCN)NC(=O)[C@H](CCCCN)NC(=O)[C@@H](NC(=O)[C@H](C)NC(=O)[C@H](CCSC)NC(=O)[C@H](CCC(N)=O)NC(=O)[C@H](CCCCN)NC(=O)[C@H](CCCNC(=N)N)NC(=O)[C@H](CC(C)C)NC(=O)[C@H](CCCNC(=N)N)NC(=O)[C@@H](NC(=O)[C@H](Cc1ccc(O)cc1)NC(=O)[C@H](CC(N)=O)NC(=O)[C@H](CC(=O)O)NC(=O)[C@@H](NC(=O)[C@H](Cc1ccccc1)NC(=O)[C@@H](NC(=O)[C@H](C)NC(=O)[C@H](CC(=O)O)NC(=O)[C@H](CO)NC(=O)[C@@H](N)Cc1c[nH]cn1)C(C)C)[C@@H](C)O)[C@@H](C)O)C(C)C)C(=O)N[C@@H](CC(C)C)C(=O)N[C@@H](CC(N)=O)C(N)=O [VIP, vasoactive intestinal polypeptide]
TGR12; [2]
  maximum activity in the calcium increasing effect: 56
TGR12; CHO-TGR12, 3 nM
  maximum activity in the calcium increasing effect: 60
TGR12; CHO-TGR12, 30 nM
  maximum activity in the calcium increasing effect: 16
TGR12; CHO-TGR12, 300 nM
  maximum activity in the calcium increasing effect: 11153
TGR12; CHO-TGR12, 3000 nM
  maximum activity in the calcium increasing effect: 24007
TGR12; CHO-TGR12, read-out: EC50 in the calcium increasing effect on CHO-TGR12
  EC50: ~305 nM
[1]; LAD 2, 10 nM
  stimulated degranulation (β-hexosaminidase in supernatant, % of total): 1.5%
[1]; LAD 2, 30 nM
  stimulated degranulation (β-hexosaminidase in supernatant, % of total): 4.0%
[1]; LAD 2, 100 nM
  stimulated degranulation (β-hexosaminidase in supernatant, % of total): 36.7%
[1]; LAD 2, 300 nM
  stimulated degranulation (β-hexosaminidase in supernatant, % of total): 63.9%
[1]; LAD 2, 1 μM
  stimulated degranulation (β-hexosaminidase in supernatant, % of total): 71.7%
[1]; LAD 2, 3 μM
  stimulated degranulation (β-hexosaminidase in supernatant, % of total): 76.1%
[1]; LAD 2, read-out: EC50 in the degranulation on LAD 2
  EC50: ~105 nM

## CSCC[C@H](NC(=O)[C@H](CCCNC(=N)N)NC(=O)[C@@H](N)CC(=O)O)C(=O)N1CCC[C@H]1C(=O)N[C@H]1CSSC[C@@H](C(=O)N[C@@H](CCCCN)C(=O)O)NC(=O)[C@H](CO)NC(=O)[C@H](CO)NC(=O)[C@H](Cc2ccccc2)NC(=O)[C@H]([C@@H](C)O)NC(=O)[C@H](CCCCN)NC(=O)[C@H](Cc2c[nH]c3ccccc23)NC(=O)[C@H](Cc2ccccc2)NC(=O)[C@H](Cc2ccccc2)NC(=O)[C@H](CC(N)=O)NC(=O)[C@H](CCCNC(=N)N)NC1=O [cortistatin-17]
TGR12; [2]
  maximum activity in the calcium increasing effect: 67
TGR12; CHO-TGR12, 3 nM
  maximum activity in the calcium increasing effect: 54
TGR12; CHO-TGR12, 30 nM
  maximum activity in the calcium increasing effect: 94
TGR12; CHO-TGR12, 300 nM
  maximum activity in the calcium increasing effect: 17914
TGR12; CHO-TGR12, 3000 nM
  maximum activity in the calcium increasing effect: 23647
[1]; LAD 2, 10 nM
  stimulated degranulation (β-hexosaminidase in supernatant, % of total): 1.6%
[1]; LAD 2, 30 nM
  stimulated degranulation (β-hexosaminidase in supernatant, % of total): 2.8%
[1]; LAD 2, 100 nM
  stimulated degranulation (β-hexosaminidase in supernatant, % of total): 26.5%
[1]; LAD 2, 300 nM
  stimulated degranulation (β-hexosaminidase in supernatant, % of total): 52.8%
[1]; LAD 2, 1 μM
  stimulated degranulation (β-hexosaminidase in supernatant, % of total): 62.2%
[1]; LAD 2, 3 μM
  stimulated degranulation (β-hexosaminidase in supernatant, % of total): 58.9%
RBL-2H3; RBL2H3, 1 nM
  maximum activity in the calcium increasing effect: 67
RBL-2H3; RBL2H3, 10 nM
  maximum activity in the calcium increasing effect: 78
RBL-2H3; RBL2H3, 100 nM
  maximum activity in the calcium increasing effect: 54
RBL-2H3; RBL2H3, 1 μM
  maximum activity in the calcium increasing effect: 49
RBL-2H3; RBL2H3, 10 μM
  maximum activity in the calcium increasing effect: 52
Human TGR12; RBL2H3-TGR12, 1 nM
  maximum activity in the calcium increasing effect: −2
Human TGR12; RBL2H3-TGR12, 10 nM
  maximum activity in the calcium increasing effect: 33
Human TGR12; RBL2H3-TGR12, 100 nM
  maximum activity in the calcium increasing effect: 1574
Human TGR12; RBL2H3-TGR12, 1 μM
  maximum activity in the calcium increasing effect: 11193
Human TGR12; RBL2H3-TGR12, 10 μM
  maximum activity in the calcium increasing effect: 12762
